Measurements reported in patent US9333264B2, “Biocompatible polymeric nanoparticles degrade and release cargo in response to biologically relevant levels of hydrogen peroxide” (The Regents of the University of California, priority 2013, dated 2016).
Each block holds one compound with its values, some of them ahead of it.

Legend:
[1] = Effect of H2O2 on the fluorescence of Nile red; assay type: physicochemical; conditions: 72 h incubation with 1 mM hydrogen peroxide
Description: The fluorescence of the dye was quenched in aqueous environments, enabling use as a model compound to indicate small molecule release from the hydrophobic nanoparticle interior. Prior to the evaluation of controlled release from our materials, the stability of Nile Red fluorescence in hydrogen peroxide was tested to ensure that the fluorescence quenching observed is not a result of Nile Red exposure to hydrogen peroxide.
Nile red solutions of three different concentrations in acetone were prepared (10, 40, 160 ng/mL). Polymer 1 was dissolved in the Nile red solutions (polymer concentration in all Nile red solutions were constant at 125 μg/mL). Hydrogen peroxide was added to these solutions (concentration in Nile red solutions was constant at 1 mM). Changes in Nile red fluorescence were monitored over a 72 h period using the same instrument settings as reported previously. These experiments were run in duplicate.

[2] = cited from earlier work
Raw264.7 macrophages = assay: ApoTox-Glo assay of viability, cytotoxicity and apoptosis; conditions: staurosporine 5 μM for 5 h; Triton X-100 0.1% for 15 min
Description: In addition, this assay also measures caspase 3/7 activity as a readout for apoptosis (see, FIGS. 7A-7D). […] Staurosporine and 0.1% Triton-X 100 were used as positive controls for induction of apoptosis and cell death, respectively.
Raw264.7 cells were seeded on a 96-well plate at a density of 15000 cells per well. […] The particles were incubated for 5, 24 and 48 h.
Apoptosis (positive control) was induced by addition of staurosporine (5 μM final concentration), followed by incubation for at 37° C. for 5 h. Cytotoxicity (positive control) was induced by addition of triton X-100 (0.1% final concentration), followed by incubation at 37° C. for 15 min. Viability, cytotoxicity and apoptosis were measured using ApoTox-Glo™ assay (Promega) as per manufacturer's protocol. Datasets for each concentration and controls were collected in quadruplicates.

dMPRO cells = assay: Extracellular hydrogen peroxide produced by neutrophils; assay type: cell-based, mouse; conditions: 1.6×10^6 dMPRO cells, after 6 h of PMA treatment
Description: Activated neutrophils generate high ROS. Extracellular hydrogen peroxide produced by neutrophils (differentiated mouse promyleocytes or dMPRO cells) with and without PMA (phorbol 12 myristate 13 acetate) stimulation was measured.
After 6 h of PMA treatment, 1.6×10^6 dMPRO cells produced 6.5 μM H2O2, while untreated cells produced 4.5 μM H2O2. These extracellular levels of H2O2 were much lower than the levels previously seen for Polymer 2, however the concentration of H2O2 inside neutrophil granules appear to be much higher. Fluorescein diacetate (FDA), a non-fluorescent molecule which is cleaved to fluorescein (Ex490/Em520) by cellular esterases, was chosen for the release assay.

change of Nile Red fluorescence [1]: did not change significantly
Compound: CCN(CC)c1ccc2nc3c4ccccc4c(=O)cc-3oc2c1 [Nile red]
solubility in aqueous media [2]: < 1 µg/mL

Compound: CN[C@@H]1C[C@H]2O[C@@](C)([C@@H]1OC)n1c3ccccc3c3c4c(c5c6ccccc6n2c5c31)C(=O)NC4 [staurosporine]
apoptosis and cell viability, positive controls (Raw264.7 macrophages): apoptosis and loss of cell viability was observed

Compound: Triton X-100
apoptosis and cell viability, positive controls (Raw264.7 macrophages): apoptosis and loss of cell viability was observed

Compound: CCCCCCCCCCCCCC(=O)O[C@@H]1[C@@H](C)[C@@]2(O)[C@@H](C=C(CO)C[C@]3(O)C(=O)C(C)=C[C@@H]23)[C@@H]2C(C)(C)[C@]12OC(C)=O [PMA, phorbol 12 myristate 13 acetate]
extracellular H2O2 produced (dMPRO cells): 6.5 µM
